Source: PubChem BioAssay AID1259407 (Chemical Carcinogenesis Research Information System (CCRIS), 2018)
Calls of active or inactive are those of the source. How the calls were made is not given here.

Tested on: CCRIS mutagenicity, Ames/micronucleus/aberration tests
Experiment: CCRIS mutagenicity studies
[1] = Test System: AMES SALMONELLA TYPHIMURIUM, Strain/Indicator: TA98, Metabolic Activation: NONE, Method: PREINCUBATION
[2] = Test System: AMES SALMONELLA TYPHIMURIUM, Strain/Indicator: TA98, Metabolic Activation: NONE, Method: STANDARD PLATE
[3] = Test System: AMES SALMONELLA TYPHIMURIUM, Strain/Indicator: TA98, Metabolic Activation: RAT, LIVER, S-9, AROCLOR 1254, Method: STANDARD PLATE
[4] = Test System: AMES SALMONELLA TYPHIMURIUM, Strain/Indicator: TA100, Metabolic Activation: NONE, Method: PREINCUBATION
[5] = Test System: AMES SALMONELLA TYPHIMURIUM, Strain/Indicator: TA100, Metabolic Activation: NONE, Method: STANDARD PLATE
[6] = Test System: AMES SALMONELLA TYPHIMURIUM, Strain/Indicator: TA100, Metabolic Activation: RAT, LIVER, S-9, AROCLOR 1254, Method: STANDARD PLATE
[7] = Test System: AMES SALMONELLA TYPHIMURIUM, Strain/Indicator: TA1535, Metabolic Activation: NONE, Method: STANDARD PLATE
[8] = Test System: AMES SALMONELLA TYPHIMURIUM, Strain/Indicator: TA1535, Metabolic Activation: RAT, LIVER, S-9, AROCLOR 1254, Method: STANDARD PLATE
[9] = Test System: AMES SALMONELLA TYPHIMURIUM, Strain/Indicator: TA1537, Metabolic Activation: NONE, Method: STANDARD PLATE
[10] = Test System: AMES SALMONELLA TYPHIMURIUM, Strain/Indicator: TA1537, Metabolic Activation: RAT, LIVER, S-9, AROCLOR 1254, Method: STANDARD PLATE
[11] = Test System: AMES SALMONELLA TYPHIMURIUM, Strain/Indicator: TA1538, Metabolic Activation: NONE, Method: STANDARD PLATE
[12] = Test System: AMES SALMONELLA TYPHIMURIUM, Strain/Indicator: TA1538, Metabolic Activation: RAT, LIVER, S-9, AROCLOR 1254, Method: STANDARD PLATE
[13] = Test System: MOUSE LYMPHOMA, Strain/Indicator: L5178Y (TK+/TK-), Metabolic Activation: NONE, Method: SUSPENSION/PLATE
[14] = Test System: MOUSE LYMPHOMA, Strain/Indicator: L5178Y (TK+/TK-), Metabolic Activation: RAT, LIVER, S-9, AROCLOR 1254, Method: SUSPENSION/PLATE

In the case of `CCCCOCCOCCO`, the mutagenic call (Test System: AMES SALMONELLA TYPHIMURIUM, Strain/Indicator: TA97, Metabolic Activation: HAMSTER, LIVER, S-9, AROCLOR 1254 (10 OR 30%), Method: PREINCUBATION) is reported as “inactive; negative”, the mutagenic call (Test System: AMES SALMONELLA TYPHIMURIUM, Strain/Indicator: TA97, Metabolic Activation: NONE, Method: PREINCUBATION) is reported as “inactive; negative” and the mutagenic call (Test System: AMES SALMONELLA TYPHIMURIUM, Strain/Indicator: TA97, Metabolic Activation: RAT, LIVER, S-9, AROCLOR 1254 (10 OR 30%), Method: PREINCUBATION) is reported as “inactive; negative”. For the same molecule, the mutagenic call (Test System: AMES SALMONELLA TYPHIMURIUM, Strain/Indicator: TA98, Metabolic Activation: HAMSTER, LIVER, S-9, AROCLOR 1254 (10 OR 30%), Method: PREINCUBATION) was “inactive; negative”, the mutagenic call [1] was “inactive; negative” and the mutagenic call [2] was “inactive; negative”. For the same molecule, the mutagenic call (Test System: AMES SALMONELLA TYPHIMURIUM, Strain/Indicator: TA98, Metabolic Activation: RAT, LIVER, S-9, AROCLOR 1254 (10 OR 30%), Method: PREINCUBATION) was “inactive; negative”, the mutagenic call [3] was “inactive; negative” and the mutagenic call (Test System: AMES SALMONELLA TYPHIMURIUM, Strain/Indicator: TA100, Metabolic Activation: HAMSTER, LIVER, S-9, AROCLOR 1254 (10 OR 30%), Method: PREINCUBATION) was “inactive; negative”. The mutagenic call [4] was “inactive; negative”, the mutagenic call [5] was “inactive; negative” and the mutagenic call (Test System: AMES SALMONELLA TYPHIMURIUM, Strain/Indicator: TA100, Metabolic Activation: RAT, LIVER, S-9, AROCLOR 1254 (10 OR 30%), Method: PREINCUBATION) was “inactive; negative”. The mutagenic call [6] was “inactive; negative”, the mutagenic call (Test System: AMES SALMONELLA TYPHIMURIUM, Strain/Indicator: TA1535, Metabolic Activation: HAMSTER, LIVER, S-9, AROCLOR 1254 (10 OR 30%), Method: PREINCUBATION) was “inactive; negative” and the mutagenic call (Test System: AMES SALMONELLA TYPHIMURIUM, Strain/Indicator: TA1535, Metabolic Activation: NONE, Method: PREINCUBATION) was “inactive; negative”. For the same molecule, the mutagenic call [7] was “inactive; negative”, the mutagenic call (Test System: AMES SALMONELLA TYPHIMURIUM, Strain/Indicator: TA1535, Metabolic Activation: RAT, LIVER, S-9, AROCLOR 1254 (10 OR 30%), Method: PREINCUBATION) was “inactive; negative” and the mutagenic call [8] was “inactive; negative”. The mutagenic call [9] was “inactive; negative”, the mutagenic call [10] was “inactive; negative” and the mutagenic call [11] was “inactive; negative”. The mutagenic call [12] was “inactive; negative”, the mutagenic call (Test System: CHINESE HAMSTER OVARY, Strain/Indicator: CHO-K1-BH4 (HGPRT)/6-THIOGUANINE, Metabolic Activation: NONE) was “inactive; negative” and the mutagenic call (Test System: CHINESE HAMSTER OVARY, Strain/Indicator: CHO-K1-BH4 (HGPRT)/THIOGUANINE, Metabolic Activation: RAT, LIVER, S-9, AROCLOR 1254) was “inactive; negative”. For the same molecule, the mutagenic call [13] was “active; positive”, the mutagenic call [14] was “inactive; negative” and the mutagenic call (Test System: UDS RAT HEPATOCYTES, Strain/Indicator: THY INCORP, Metabolic Activation: NONE, Method: AUTORADIOGRAPHY) was “inactive; negative”.

With `CC(=O)[C@]1(C)O[C@@]12C=Cc1ccccc1C2=O` the mutagenic call [4] was “inactive; negative”.

In the case of `O=C1C=CC(=O)C(c2ccc(Cl)cc2)=C1`, the mutagenic call (End Point: In vitro micronucleus, Test System: Chinese hamster lung V79 cells, Metabolic Activation: None) is reported as “active; positive”.

For `COc1c(CO)c(O)cc2c1C(=O)c1ccccc1C2=O`, the mutagenic call [1] was “inactive; negative”, the mutagenic call (Test System: AMES SALMONELLA TYPHIMURIUM, Strain/Indicator: TA98, Metabolic Activation: RAT, LIVER, S-9, PCB, Method: PREINCUBATION) was “inactive; negative” and the mutagenic call [4] was “active; positive”. The mutagenic call (Test System: AMES SALMONELLA TYPHIMURIUM, Strain/Indicator: TA100, Metabolic Activation: RAT, LIVER, S-9, PCB, Method: PREINCUBATION) was “active; positive”.

`Nc1ncnc2c1nc(Cl)n2[C@@H]1O[C@@H]2COP(=O)(O)O[C@H]2[C@H]1O` was tested, and the mutagenic call (End Point: IN VIVO CHROMOSOMAL ABERRATIONS, Test System: BONE MARROW, Species: MOUSE, Strain/Sex: BALB/C, Route: IP) was “active; positive (structural and ploidy changes)”, the mutagenic call (End Point: IN VIVO MICRONUCLEUS, Test System: BONE MARROW, Species: MOUSE, Strain/Sex: BALB/C, Route: IP) was “active; positive” and the mutagenic call [13] was “inactive; negative. reevaluation of results: negative”. The mutagenic call [14] was “inactive; negative. reevaluation of results: negative”.

`Cc1cc(-c2ccc(N=Nc3c(N)c(C)cc(S(=O)(=O)O)c3N)c(C)c2)ccc1N=Nc1ccc(O)c(C(=O)O)c1` was tested, and the mutagenic call [12] was “active; positive”.

With `O=C(Nc1ccc([N+](=O)[O-])cc1)c1csc([N+](=O)[O-])c1` the mutagenic call [2] was “active; positive” and the mutagenic call [5] was “active; positive”.

In the case of `CC[C@@]1(O)C[C@H](O)c2c(cc3c(c2O)C(=O)c2c(O)cccc2C3=O)[C@H]1C(=O)OC`, the mutagenic call [2] is reported as “active; positive”, the mutagenic call [3] is reported as “active; positive” and the mutagenic call [5] is reported as “inactive; negative”. For the same molecule, the mutagenic call [11] was “inactive; negative”.

In the case of `O=[N+]([O-])c1ccc(/C=C/c2ccc(Cl)cc2)cc1`, the mutagenic call (Test System: AMES SALMONELLA TYPHIMURIUM, Strain/Indicator: TA98 (NR), Metabolic Activation: NONE, Method: STANDARD PLATE) is reported as “active; positive”, the mutagenic call (Test System: AMES SALMONELLA TYPHIMURIUM, Strain/Indicator: TA98 (NR), Metabolic Activation: S-9, Method: STANDARD PLATE) is reported as “active; positive” and the mutagenic call [2] is reported as “active; positive”. For the same molecule, the mutagenic call (Test System: AMES SALMONELLA TYPHIMURIUM, Strain/Indicator: TA98, Metabolic Activation: S-9, Method: STANDARD PLATE) was “active; positive”, the mutagenic call (Test System: AMES SALMONELLA TYPHIMURIUM, Strain/Indicator: TA100 (NR), Metabolic Activation: NONE, Method: STANDARD PLATE) was “inactive; negative” and the mutagenic call (Test System: AMES SALMONELLA TYPHIMURIUM, Strain/Indicator: TA100 (NR), Metabolic Activation: S-9, Method: STANDARD PLATE) was “inactive; negative”. The mutagenic call [5] was “inactive; negative” and the mutagenic call (Test System: AMES SALMONELLA TYPHIMURIUM, Strain/Indicator: TA100, Metabolic Activation: S-9, Method: STANDARD PLATE) was “active; positive”.

With `Cc1ccc2c3c(cc4ccccc4c13)-c1ccccc1-2` the mutagenic call (Test System: AMES SALMONELLA TYPHIMURIUM, Strain/Indicator: TA100, Metabolic Activation: RAT, LIVER, S-9, AROCLOR 1254) was “active; positive”.

In the case of `O=[N+]([O-])O[C@@H]1CO[C@H]2[C@@H]1OC[C@@H]2O`, the mutagenic call [2] is reported as “inactive; negative”, the mutagenic call [3] is reported as “inactive; negative” and the mutagenic call [5] is reported as “inactive; negative”. For the same molecule, the mutagenic call [6] was “inactive; negative”, the mutagenic call [7] was “inactive; negative” and the mutagenic call [8] was “inactive; negative”. The mutagenic call [9] was “inactive; negative” and the mutagenic call [10] was “inactive; negative”.
